Data from ChEMBL document CHEMBL1201862, “PubChem BioAssay data set” (2004).
The source made the active and inactive calls.

Legend:
[1] = microbe, parasite or virus in culture; type: functional; conditions: Mycobacterium tuberculosis
[2] = growth suppression of PTEN-null colon cells, dose response, cell-based, HCT116 PTEN knockout (AID 1047); type: functional;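 also: HCT116 colon tumor cells with PTEN knocked out; cells exposed to compound for 60 hours before readout; potency for loss of cell viability measured by luminescence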
[3] = growth suppression of beta-catenin-knockout colon cells, dose response, cell-based, HCT116, human colon tumor (AID 1045); type: functional;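 also: HCT116 colon tumor cells with beta catenin knocked out; cells exposed to compound for 60 hours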
[4] = biological target: T1, Microphthalmia-associated transcription factor (Homo sapiens, UniProt O75030); experiment: TRPM1 promoter luciferase signal decrease, dose response, MITF inhibitor project, cell-based, SK-MEL-5, cherry-picked, set 3 (AID 493073); type: functional
T1 sequence (O75030 whole entry): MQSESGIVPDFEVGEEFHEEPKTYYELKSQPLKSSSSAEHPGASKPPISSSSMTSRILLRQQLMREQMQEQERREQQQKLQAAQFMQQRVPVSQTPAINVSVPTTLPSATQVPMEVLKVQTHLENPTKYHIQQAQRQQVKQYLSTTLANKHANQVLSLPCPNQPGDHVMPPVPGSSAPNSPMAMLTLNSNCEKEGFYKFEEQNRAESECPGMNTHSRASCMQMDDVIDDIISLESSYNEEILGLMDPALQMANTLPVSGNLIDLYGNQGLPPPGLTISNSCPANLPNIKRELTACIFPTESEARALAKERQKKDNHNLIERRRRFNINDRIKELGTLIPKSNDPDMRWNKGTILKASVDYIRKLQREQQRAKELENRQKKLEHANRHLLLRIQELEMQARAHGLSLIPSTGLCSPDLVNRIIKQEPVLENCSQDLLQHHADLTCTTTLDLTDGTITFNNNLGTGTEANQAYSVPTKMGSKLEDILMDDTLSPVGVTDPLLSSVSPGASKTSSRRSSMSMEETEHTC

INS1 = experiment: beta cell apoptosis inhibitors, cytokine rescue, dose response, luminescence, retest (AID 449756); type: functional, cell-based; conditions: Rattus norvegicus;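 also: cell death triggered by IL-1 beta plus TNF-alpha plus IFN-gamma mixture; protective hits raise ATP signal compared with cytokine alone wells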
A-375 = experiment: A375 melanoma cell viability reduction, dose response, counter-screen for MITF modulator project, cherry-pick samples, set 2 (AID 540335); type: functional, cell-based; conditions: Homo sapiens
[5] = biological target: Cystic fibrosis transmembrane conductance regulator/Golgi-associated PDZ and coiled-coil motif-containing protein (Homo sapiens, UniProt P13569+Q9HD26); experiment: CAL PDZ peptide-binding inhibitors, dose response, biochemical, fluorescence polarization, Cerulean-tagged CAL PDZ, cherry-picks (AID 504773)
Hexokinase HKDC1 [6] = biological target: T2, Hexokinase HKDC1 (Homo sapiens, UniProt Q2TB90); experiment: HKDC1 hexokinase inhibitors, dose response, biochemical, W721R variant (AID 504729); type: functional
T2 sequence (Q2TB90 whole entry): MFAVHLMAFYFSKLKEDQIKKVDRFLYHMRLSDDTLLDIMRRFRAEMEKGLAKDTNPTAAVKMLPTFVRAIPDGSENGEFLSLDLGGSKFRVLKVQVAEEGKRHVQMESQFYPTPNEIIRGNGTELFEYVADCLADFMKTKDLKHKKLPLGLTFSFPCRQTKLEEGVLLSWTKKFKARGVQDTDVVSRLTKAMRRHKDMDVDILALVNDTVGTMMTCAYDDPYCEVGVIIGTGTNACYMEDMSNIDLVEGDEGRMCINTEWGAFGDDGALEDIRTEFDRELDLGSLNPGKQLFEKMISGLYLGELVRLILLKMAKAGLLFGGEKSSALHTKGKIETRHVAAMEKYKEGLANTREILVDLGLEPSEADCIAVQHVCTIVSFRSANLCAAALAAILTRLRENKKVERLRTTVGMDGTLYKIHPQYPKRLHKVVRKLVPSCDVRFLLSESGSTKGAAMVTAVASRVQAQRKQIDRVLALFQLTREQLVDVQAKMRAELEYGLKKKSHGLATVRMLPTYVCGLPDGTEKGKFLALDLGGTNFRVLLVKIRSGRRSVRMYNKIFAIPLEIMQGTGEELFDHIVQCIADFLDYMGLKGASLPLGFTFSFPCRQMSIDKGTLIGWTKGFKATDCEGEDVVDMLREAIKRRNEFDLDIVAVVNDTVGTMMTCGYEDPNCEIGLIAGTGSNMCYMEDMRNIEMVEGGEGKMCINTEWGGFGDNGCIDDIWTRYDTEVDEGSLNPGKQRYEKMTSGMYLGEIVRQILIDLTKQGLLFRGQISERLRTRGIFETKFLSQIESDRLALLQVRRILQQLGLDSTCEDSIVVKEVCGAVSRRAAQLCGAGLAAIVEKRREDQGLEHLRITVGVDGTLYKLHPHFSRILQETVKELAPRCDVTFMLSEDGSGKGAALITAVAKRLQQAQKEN

Hexokinase-1 = biological target: T3, Hexokinase-1 (Homo sapiens, UniProt P19367); experiment: HK1 enzyme inhibition by HKDC1 hits, SAR follow-up, selectivity assay for HKDC1 inhibitor project, biochemical, set 2, resazurin fluorescence coupled readout (AID 588356); type: functional
T3 sequence (P19367 whole entry): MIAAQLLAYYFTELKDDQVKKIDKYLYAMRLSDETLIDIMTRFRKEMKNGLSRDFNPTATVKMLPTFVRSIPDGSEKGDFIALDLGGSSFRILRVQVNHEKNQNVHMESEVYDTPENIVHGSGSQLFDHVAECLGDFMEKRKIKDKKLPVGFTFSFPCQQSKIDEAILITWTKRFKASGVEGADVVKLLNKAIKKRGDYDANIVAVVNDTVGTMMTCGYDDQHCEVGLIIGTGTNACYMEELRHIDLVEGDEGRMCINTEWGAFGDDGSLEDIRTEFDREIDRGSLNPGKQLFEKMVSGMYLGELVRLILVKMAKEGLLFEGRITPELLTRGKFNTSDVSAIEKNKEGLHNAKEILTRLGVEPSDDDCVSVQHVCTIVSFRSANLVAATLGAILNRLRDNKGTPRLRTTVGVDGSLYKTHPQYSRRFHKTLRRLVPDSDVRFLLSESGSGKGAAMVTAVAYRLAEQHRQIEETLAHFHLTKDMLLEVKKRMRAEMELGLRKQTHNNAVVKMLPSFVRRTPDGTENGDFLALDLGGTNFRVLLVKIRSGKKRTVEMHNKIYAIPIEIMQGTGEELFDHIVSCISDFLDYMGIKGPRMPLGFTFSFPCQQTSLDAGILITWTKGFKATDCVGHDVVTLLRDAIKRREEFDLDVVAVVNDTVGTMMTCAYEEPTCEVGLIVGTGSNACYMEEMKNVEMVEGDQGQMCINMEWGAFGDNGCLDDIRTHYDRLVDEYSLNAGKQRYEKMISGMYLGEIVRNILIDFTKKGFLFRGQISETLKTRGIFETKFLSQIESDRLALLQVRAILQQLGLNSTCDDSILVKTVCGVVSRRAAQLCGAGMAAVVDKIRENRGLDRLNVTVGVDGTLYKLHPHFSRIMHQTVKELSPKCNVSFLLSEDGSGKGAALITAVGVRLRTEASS

[7] = biological target: T4, Replicative DNA helicase DnaB (Mycobacterium tuberculosis, UniProt P9WMR3); experiment: DnaB intein splicing inhibitors, dose response, biochemical, cell-free fluorescence (AID 449749); type: functional
T4 sequence (P9WMR3 whole entry): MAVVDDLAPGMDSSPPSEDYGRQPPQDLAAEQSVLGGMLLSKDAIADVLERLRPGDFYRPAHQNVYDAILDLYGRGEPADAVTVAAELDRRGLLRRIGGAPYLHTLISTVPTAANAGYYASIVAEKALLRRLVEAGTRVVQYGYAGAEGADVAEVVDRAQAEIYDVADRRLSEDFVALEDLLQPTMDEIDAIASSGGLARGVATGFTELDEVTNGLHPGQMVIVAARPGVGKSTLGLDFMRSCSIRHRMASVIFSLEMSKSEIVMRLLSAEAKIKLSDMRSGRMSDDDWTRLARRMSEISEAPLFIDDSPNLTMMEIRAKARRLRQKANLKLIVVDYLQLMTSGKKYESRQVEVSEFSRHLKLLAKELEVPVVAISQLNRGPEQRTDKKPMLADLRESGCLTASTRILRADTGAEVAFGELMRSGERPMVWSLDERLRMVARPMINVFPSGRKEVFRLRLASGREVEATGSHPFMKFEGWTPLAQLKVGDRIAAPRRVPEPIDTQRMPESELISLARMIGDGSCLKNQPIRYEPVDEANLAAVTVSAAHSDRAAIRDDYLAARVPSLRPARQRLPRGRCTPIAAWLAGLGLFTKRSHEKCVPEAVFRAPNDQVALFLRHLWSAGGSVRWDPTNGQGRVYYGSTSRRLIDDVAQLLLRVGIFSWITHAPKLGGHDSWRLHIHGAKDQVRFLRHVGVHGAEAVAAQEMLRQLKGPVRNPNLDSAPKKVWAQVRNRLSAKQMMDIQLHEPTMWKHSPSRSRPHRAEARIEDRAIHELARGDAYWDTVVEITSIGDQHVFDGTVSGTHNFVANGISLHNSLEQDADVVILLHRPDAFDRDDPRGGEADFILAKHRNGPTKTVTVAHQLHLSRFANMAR

Protein RecA = biological target: T5, Protein RecA (Mycobacterium tuberculosis, UniProt P9WHJ3); experiment: Fluorescence Cell-Free Homogeneous Dose Retest to Identify Inhibitors of RecA-Intein Splicing Activity. [Related pubchem assays (depositor defined):AID2097, AID2223, AID489010, AID492950]; type: functional
T5 sequence (P9WHJ3 whole entry): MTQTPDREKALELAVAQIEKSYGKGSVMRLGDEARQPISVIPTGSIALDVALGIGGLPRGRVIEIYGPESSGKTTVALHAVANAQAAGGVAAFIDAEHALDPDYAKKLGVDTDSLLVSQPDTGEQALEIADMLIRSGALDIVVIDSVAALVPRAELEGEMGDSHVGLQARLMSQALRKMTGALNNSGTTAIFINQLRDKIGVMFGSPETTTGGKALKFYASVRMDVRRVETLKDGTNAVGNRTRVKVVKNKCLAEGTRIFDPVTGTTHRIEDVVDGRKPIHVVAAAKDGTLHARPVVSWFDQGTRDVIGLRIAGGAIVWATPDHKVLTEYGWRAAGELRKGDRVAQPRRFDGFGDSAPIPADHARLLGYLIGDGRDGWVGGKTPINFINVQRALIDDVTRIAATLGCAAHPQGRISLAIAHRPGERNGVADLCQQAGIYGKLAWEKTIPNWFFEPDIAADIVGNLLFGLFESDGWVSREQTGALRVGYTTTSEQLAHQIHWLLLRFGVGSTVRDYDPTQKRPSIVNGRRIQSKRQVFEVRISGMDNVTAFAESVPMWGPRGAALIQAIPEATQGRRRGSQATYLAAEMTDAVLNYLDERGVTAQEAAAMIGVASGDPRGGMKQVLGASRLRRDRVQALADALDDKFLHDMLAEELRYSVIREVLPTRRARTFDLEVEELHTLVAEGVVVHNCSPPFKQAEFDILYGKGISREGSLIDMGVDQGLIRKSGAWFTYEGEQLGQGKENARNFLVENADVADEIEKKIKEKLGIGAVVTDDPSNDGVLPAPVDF

Hexokinase HKDC1 [8] = biological target: T2, Hexokinase HKDC1; experiment: HKDC1 hexokinase inhibitors, SAR follow-up, biochemical, set 2 (AID 588355); type: functional
HEK293 = experiment: cells; type: functional, cell-based; conditions: Homo sapiens
[9] = biological target: Nuclear receptor subfamily 0 group B member 1 (Homo sapiens, UniProt P51843); experiment: Luminescence-based cell-based high throughput dose response assay for inhibitors of the orphan nuclear receptor subfamily 0, group B, member 1 (DAX1; NR0B1). [Related pubchem assays (depositor defined):AID504766, AID504790]; type: functional
Nuclear receptor subfamily 0 group B member 1, sequence (P51843 whole entry): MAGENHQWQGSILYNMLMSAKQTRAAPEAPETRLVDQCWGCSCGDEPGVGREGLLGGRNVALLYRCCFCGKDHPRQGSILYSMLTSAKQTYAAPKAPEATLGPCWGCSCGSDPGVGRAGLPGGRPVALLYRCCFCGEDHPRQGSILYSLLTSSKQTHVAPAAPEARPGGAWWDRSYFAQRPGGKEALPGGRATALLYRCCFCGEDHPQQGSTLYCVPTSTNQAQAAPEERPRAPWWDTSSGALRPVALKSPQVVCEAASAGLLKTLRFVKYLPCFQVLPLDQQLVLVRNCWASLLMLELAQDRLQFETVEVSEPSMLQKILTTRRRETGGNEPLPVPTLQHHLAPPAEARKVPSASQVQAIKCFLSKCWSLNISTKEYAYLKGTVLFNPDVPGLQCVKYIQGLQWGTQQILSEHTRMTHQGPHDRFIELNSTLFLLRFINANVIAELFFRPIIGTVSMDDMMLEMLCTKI

Cystic fibrosis transmembrane conductance regulator/Golgi-associated PDZ and coiled-coil motif-containing protein, sequence (P13569 whole entry, other chains not shown): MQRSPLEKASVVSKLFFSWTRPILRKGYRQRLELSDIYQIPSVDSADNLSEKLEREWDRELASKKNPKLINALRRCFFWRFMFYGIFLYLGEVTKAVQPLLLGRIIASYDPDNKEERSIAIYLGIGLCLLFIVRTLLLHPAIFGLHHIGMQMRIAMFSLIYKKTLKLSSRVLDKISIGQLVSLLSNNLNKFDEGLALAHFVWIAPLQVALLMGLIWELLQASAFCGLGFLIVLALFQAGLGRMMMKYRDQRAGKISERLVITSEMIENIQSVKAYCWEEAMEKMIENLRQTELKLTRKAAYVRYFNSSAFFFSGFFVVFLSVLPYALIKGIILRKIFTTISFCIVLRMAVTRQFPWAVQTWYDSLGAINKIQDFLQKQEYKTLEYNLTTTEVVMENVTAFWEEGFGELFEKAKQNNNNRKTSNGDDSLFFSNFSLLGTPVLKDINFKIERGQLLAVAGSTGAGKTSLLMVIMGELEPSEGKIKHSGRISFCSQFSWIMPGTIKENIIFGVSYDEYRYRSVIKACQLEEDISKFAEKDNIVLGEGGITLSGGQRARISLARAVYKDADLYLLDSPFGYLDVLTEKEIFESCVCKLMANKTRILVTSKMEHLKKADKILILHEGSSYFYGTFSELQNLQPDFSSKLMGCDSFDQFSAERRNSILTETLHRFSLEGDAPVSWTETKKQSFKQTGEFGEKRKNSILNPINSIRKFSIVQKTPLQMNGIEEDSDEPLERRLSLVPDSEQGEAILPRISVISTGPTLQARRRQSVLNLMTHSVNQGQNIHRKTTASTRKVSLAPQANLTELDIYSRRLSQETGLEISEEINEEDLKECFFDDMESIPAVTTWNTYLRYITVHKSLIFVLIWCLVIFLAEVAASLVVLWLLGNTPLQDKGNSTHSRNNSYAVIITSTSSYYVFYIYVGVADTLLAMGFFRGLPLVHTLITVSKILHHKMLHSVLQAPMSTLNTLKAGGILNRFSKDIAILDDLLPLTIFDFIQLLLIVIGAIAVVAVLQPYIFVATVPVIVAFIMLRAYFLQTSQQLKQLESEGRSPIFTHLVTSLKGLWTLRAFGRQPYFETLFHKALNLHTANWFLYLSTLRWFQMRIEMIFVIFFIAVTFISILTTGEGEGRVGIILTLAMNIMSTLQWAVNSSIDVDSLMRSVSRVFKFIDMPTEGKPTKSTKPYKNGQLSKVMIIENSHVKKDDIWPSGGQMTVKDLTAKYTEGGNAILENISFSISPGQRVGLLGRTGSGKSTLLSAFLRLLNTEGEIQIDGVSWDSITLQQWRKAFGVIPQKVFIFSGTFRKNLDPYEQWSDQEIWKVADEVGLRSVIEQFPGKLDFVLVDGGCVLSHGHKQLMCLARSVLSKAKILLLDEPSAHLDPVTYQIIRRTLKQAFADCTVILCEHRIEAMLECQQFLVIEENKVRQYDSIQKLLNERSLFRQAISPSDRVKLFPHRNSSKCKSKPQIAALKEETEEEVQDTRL

CC1CCC(C(C)C)C(OC(=O)Cn2c(-c3ccc(F)cc3)[n+](C)c3ccccc32)C1 (centres undefined)
CC50 [1]: 40 µM (active)
EC50 [2]: 4.98 µM (active)
EC50 [3]: 4.18 µM (active)
AC50 [4]: 5.57 µM (active)
AC50 (INS1): 3.69 µM (active)
AC50 (A-375): 47.2 µM (active)

CCOc1ccc2c(c1)C(NC(C)=O)C(=O)N2CCN1CCOCC1 (centres undefined)
AC50 [5]: 27.3 µM (active)
IC50 (Hexokinase HKDC1 [6]): 6.63 µM (active)
IC50 (Hexokinase-1): > 80 µM (inactive)
AC50 [7]: 27.8 µM (active)
EC50 (Protein RecA): 12.6 µM (active)
IC50 (Hexokinase HKDC1 [8]): 8.44 µM (active)

O=C(c1ccc(Br)cc1)c1coc2ccc(O)cc12
IC50 (HEK293): > 67.5 µM (inactive)
IC50 [9]: > 67.5 µM (inactive)
